According to publication PMC2934701 (The Journal of Biological Chemistry, 2010):
Residue numbers refer to the chain shown, from its start.

Legend:
Assay in all cases: Fluo-4 calcium assay, HEK293T + Galpha16gust44
Assay type in all cases: cell-based
hTAS2R16 (ssr3-hTAS2R16) [1] = molecular target: T1, hTAS2R16 (ssr3-hTAS2R16) (Homo sapiens, UniProt Q9NYV7, F93L)
T1 sequence (Q9NYV7 1-291 F93L): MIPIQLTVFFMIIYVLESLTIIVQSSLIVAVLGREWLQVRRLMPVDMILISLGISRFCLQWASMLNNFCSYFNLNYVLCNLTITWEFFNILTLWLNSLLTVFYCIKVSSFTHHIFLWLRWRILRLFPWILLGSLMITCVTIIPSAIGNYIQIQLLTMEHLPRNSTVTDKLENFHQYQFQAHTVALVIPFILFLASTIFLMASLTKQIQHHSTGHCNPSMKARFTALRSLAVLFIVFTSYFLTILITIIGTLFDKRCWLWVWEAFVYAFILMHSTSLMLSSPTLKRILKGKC

hTAS2R16 (ssr3-hTAS2R16) [2] = molecular target: T2, hTAS2R16 (ssr3-hTAS2R16) (Homo sapiens, UniProt Q9NYV7, F93Y)
T2 sequence (Q9NYV7 1-291 F93Y): T1 sequence (Q9NYV7 1-291 F93L) with L93Y

hTAS2R16 (ssr3-hTAS2R16) [3] = molecular target: T3, hTAS2R16 (ssr3-hTAS2R16) (Homo sapiens, UniProt Q9NYV7, F93T)
T3 sequence (Q9NYV7 1-291 F93T): T1 sequence (Q9NYV7 1-291 F93L) with L93T

hTAS2R16 (ssr3-hTAS2R16) [4] = molecular target: T4, hTAS2R16 (ssr3-hTAS2R16) (Homo sapiens, UniProt Q9NYV7, H181L)
T4 sequence (Q9NYV7 1-291 H181L): T1 sequence (Q9NYV7 1-291 F93L) with L93F, H181L

## OCc1ccccc1O[C@@H]1O[C@H](CO)[C@@H](O)[C@H](O)[C@H]1O [salicin]
hTAS2R16 (ssr3-hTAS2R16) [1]
  EC50: 4.15 mM
hTAS2R16 (ssr3-hTAS2R16) [2]
  EC50: 10 mM
hTAS2R16 (ssr3-hTAS2R16) [3]
  EC50: 12 mM
hTAS2R16 (ssr3-hTAS2R16) [4]
  EC50: 12.9 mM
